This passage reports Dmax and DC50 results from patent US20260335299A1, “SUBSTITUTED OXOISOINDOLINYL PIPERIDINE-2,6-DIONE COMPOUND AS ANTICANCER AGENT” (BRISTOL-MYERS SQUIBB COMPANY, priority 2023, published 2026).

Read-outs that look alike come from different tables or passages of the source.

The target in one experiment is IKZF3 Aiolos (Homo sapiens, UniProt Q96SW2+Q9UKT9). As to the kind of experiment: Human CD8+ T Cell Reprogramming (Degradation) Assay (Aiolos). It is filed as cell-based. Set-up: Cryopreserved healthy donor human peripheral blood mononuclear cells (PBMC); endogenous in cells; host or cells: CD8+ T cells within healthy donor human PBMC. The note with it: 24 h. Here is the method:
Cryopreserved healthy donor human peripheral blood mononuclear cells (PBMC) from healthy donors were thawed and seeded at 500,000 cells/well of 96-well round bottom plates in RPMI 1640 media (Gibco) supplemented with 10% FBS, Pen/Strep (Gibco), MEM-NEAA (Gibco), and sodium pyruvate (Gibco). Cells were treated with titrated doses of compound for 24 hours at 37° C., 5% CO2 before analyzing by flow cytometry.
For flow cytometry staining, cells were washed twice with flow cytometry staining buffer (Thermo Fisher) and incubated in Human Tru-stain Fc block (Biolegend) for 10 minutes before adding eFluor780 viability dye (Thermo Fisher) and surface marker antibody cocktail containing LD-eFluor780, CD3-BUV-395, CD4-BUV805, CD8-FITC, and CD25-BV605 for 30 minutes at 4° C. Cells were then fixed and permeabilized by incubation with permeabilization buffer (eBioscience FoxP3 buffer set 00-5523-00) for 30 minutes at 4° C. as per the kit manufacturer's instructions. Cells were washed twice with the Perm/Wash buffer supplied in the kit as per the manufacturer's instructions and incubated overnight at 4° C. with an intracellular antibody cocktail comprised of antibodies specific for the transcription factors (i.e., Foxp3-BV421, HELIOS-PE-Cy7, EOS-PE, IKAROS-PECF594, AIOLOS-AF647). Cells were washed twice with Perm/Wash buffer and resuspended in flow cytometry staining buffer (Thermo Fisher) prior to acquisition. Sample acquisition and analysis was performed using a BD LSRFortessa (BD Biosciences) flow cytometer. Single-stain controls for each fluorochrome were prepared using UltraComp eBead Compensation Beads (Thermo Fisher). Data were analyzed using FlowJo version 10 and GraphPad Prism Software.
Table D-1 lists the maximum observed degradation of the IKZF1 protein and IKZF3 protein as measured in the Human CD8^+ T Cell Reprogramming assay. The results in Table D-1 were rounded to two digits. In the Human CD8^+ T Cell Reprogramming assay, a value of 100% indicated no detectable protein remaining or complete degradation of the protein; and a value of 0% indicated no detectable degradation of the protein by the test compound.

The target of the next experiment is IKZF2 Helios (Homo sapiens, UniProt Q96SW2+Q9UKS7). As to the kind of experiment: Human Regulatory T Cell Reprogramming Assay (Helios). The format is cell-based. More on the design: Human CD4+ T cells were isolated from fresh healthy leukopaks; endogenous in cells; host or cells: FACS-sorted primary human regulatory T cells from healthy leukopaks. Here is the method: Human CD4+ T cells were isolated from fresh healthy leukopaks (Stemcell Technologies) using the RosetteSep Human CD4+ T cell enrichment cocktail (Stemcell Technologies) and Ficoll density gradient centrifugation. Leukopaks were diluted with an equal volume of phosphate-buffered saline (PBS [Gibco]) supplemented with 2% fetal bovine serum (FBS, VWR Lifescience) and incubated with RosetteSep Human CD4^+ T cell enrichment cocktail for 20 minutes before layering on Ficoll-Paque Plus solution (GE Health Care). The cell-rich interface layer was harvested and washed twice with PBS supplemented with 2% FBS. Regulatory T cells were then isolated manually using the EasySep Human CD4^+CD1271WCD25^+ Regulatory T cell isolation kit (Stemcell Technologies) according to the manufacturer's instructions. Cells were rested overnight in Roswell Park Memorial Institute (RPMI) 1640 media (Gibco) supplemented with 10% FBS, Pen/Strep (Gibco), MEM-NEAA (Gibco), and sodium pyruvate (Gibco) in a humidified incubator (37° C., 5% CO2). Cells were then stained for CD4 (clone: RPA-T4, Biolegend), CD25 (clone: 2A3, BD Biosciences), and CD127 (clone: hIL-7R-M21, BD Biosciences). CD4+CD12710WCD25+ cells were sorted on a BD FACS Aria Fusion sorter to a purity of 95% or greater. Sorted cells were immediately used or cryopreserved for downstream assays.
Fresh or cryopreserved FACS-sorted CD4+CD127^lowCD25^+ Treg cells were cultured at 25,000-50,000 cells/well of 96-well round bottom plates in RPMI 1640 media (Gibco) supplemented with 10% FBS, Pen/Strep (Gibco), MEM-NEAA (Gibco), and sodium pyruvate (Gibco). Cells were stimulated with Treg Xpander beads (Thermo Fisher) at cells-to-beads ratio of 1:4 in the presence of 500 U/mL recombinant human IL-2 (Proleukin). Compounds were added at titrated doses and cells were incubated at 37° C., 5% CO2 for 12-13 days. Recombinant human IL-2 and compound were replenished every 2-3 days during the entire culture duration. On day 12 or 13, cells were restimulated with phorbol 12-myristate 13-acetate (PMA) and ionomycin in the presence of the protein transport inhibitors brefeldin A and monensin (eBioscience Cell Stimulation Cocktail plus protein transport inhibitors, 500×, Catalog number 00-4975-93) before proceeding with flow cytometry staining and analysis.
For flow cytometry staining, cells were washed twice with flow cytometry staining buffer (Thermo Fisher) and incubated in Human Tru-stain Fc block (Biolegend) for 10 minutes before adding eFluor780 viability dye (Thermo Fisher) and surface marker antibody cocktail for 30 minutes at 4° C. […] Data were analyzed using FlowJo version 10 and GraphPad Prism Software.
Table C-1 lists the maximum observed degradation of the IKZF2 protein and IKZF4 protein as measured in the Human Regulatory T Cell Reprogramming assay. […]

IKZF3 Aiolos, sequence (Q9UKT9 whole entry): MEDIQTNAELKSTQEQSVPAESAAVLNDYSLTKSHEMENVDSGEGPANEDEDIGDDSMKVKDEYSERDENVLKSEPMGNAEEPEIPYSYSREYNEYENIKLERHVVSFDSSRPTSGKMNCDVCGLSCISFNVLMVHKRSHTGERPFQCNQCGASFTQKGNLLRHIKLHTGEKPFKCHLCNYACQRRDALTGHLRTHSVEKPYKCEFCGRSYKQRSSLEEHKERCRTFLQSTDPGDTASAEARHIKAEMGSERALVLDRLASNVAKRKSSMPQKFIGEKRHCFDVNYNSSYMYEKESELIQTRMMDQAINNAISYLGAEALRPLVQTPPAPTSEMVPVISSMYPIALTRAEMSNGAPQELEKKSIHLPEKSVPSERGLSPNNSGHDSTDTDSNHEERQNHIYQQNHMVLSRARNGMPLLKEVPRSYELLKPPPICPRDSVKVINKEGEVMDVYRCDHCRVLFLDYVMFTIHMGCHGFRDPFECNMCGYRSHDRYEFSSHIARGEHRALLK
IKZF3 Aiolos, sequence (Q96SW2 whole entry): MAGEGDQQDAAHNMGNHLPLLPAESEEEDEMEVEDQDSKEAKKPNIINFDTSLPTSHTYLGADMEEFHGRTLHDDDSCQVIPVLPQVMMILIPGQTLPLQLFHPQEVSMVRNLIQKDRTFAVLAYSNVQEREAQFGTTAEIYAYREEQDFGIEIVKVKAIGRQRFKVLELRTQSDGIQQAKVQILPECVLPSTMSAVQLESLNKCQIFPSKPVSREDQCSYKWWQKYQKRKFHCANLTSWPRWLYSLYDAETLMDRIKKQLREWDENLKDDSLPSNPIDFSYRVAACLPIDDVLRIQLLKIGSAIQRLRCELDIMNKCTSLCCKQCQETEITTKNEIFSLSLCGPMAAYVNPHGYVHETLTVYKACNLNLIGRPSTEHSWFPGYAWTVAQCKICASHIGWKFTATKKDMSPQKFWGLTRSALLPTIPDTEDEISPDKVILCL
IKZF3 Aiolos, sequence (Q16531 whole entry partner): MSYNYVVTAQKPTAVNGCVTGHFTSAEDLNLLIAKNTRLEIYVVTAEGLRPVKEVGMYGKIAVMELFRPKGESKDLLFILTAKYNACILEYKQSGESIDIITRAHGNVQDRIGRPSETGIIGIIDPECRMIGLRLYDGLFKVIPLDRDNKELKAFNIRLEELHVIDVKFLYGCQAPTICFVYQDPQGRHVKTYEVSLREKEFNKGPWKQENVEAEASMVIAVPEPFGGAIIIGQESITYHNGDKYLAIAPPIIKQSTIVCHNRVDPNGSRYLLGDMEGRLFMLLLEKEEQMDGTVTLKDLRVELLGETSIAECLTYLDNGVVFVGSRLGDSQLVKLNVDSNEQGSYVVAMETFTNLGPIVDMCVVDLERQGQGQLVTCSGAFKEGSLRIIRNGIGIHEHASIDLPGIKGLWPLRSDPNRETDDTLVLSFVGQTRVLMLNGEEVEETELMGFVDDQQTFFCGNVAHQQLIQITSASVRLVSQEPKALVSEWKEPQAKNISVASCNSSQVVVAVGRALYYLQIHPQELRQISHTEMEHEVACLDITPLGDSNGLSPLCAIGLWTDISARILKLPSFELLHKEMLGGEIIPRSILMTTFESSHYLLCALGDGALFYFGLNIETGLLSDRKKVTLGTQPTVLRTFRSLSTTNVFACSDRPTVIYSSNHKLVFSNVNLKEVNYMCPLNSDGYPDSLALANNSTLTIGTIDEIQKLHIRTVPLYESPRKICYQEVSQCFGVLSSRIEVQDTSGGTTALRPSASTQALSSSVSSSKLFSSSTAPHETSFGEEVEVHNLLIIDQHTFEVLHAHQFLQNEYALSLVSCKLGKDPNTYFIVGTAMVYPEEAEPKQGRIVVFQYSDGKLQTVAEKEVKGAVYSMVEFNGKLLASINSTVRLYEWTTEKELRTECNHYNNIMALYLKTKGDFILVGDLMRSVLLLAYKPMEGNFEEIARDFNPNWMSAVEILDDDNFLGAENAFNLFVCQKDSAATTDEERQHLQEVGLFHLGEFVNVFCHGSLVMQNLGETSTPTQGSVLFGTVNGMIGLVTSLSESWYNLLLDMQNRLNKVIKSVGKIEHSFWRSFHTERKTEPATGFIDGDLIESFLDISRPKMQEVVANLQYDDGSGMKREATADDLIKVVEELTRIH
IKZF2 Helios, sequence (Q9UKS7 whole entry): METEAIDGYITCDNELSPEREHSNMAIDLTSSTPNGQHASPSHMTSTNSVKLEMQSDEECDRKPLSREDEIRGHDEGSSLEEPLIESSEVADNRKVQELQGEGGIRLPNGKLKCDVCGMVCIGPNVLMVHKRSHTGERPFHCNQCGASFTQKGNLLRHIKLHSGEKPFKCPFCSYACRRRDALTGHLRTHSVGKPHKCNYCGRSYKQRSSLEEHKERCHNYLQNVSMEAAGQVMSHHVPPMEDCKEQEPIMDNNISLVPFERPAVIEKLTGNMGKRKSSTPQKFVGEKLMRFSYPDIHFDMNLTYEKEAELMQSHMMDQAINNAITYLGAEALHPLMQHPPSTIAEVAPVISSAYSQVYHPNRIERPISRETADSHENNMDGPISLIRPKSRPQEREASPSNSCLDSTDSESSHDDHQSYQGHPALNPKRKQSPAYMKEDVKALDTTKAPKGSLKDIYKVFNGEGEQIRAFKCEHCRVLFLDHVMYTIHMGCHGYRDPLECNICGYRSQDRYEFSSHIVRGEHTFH
IKZF2 Helios, sequence (Q96SW2 whole entry): as the sequence (Q96SW2 whole entry) above
IKZF2 Helios, sequence (Q16531 whole entry partner): as the sequence (Q16531 whole entry partner) above

Turning to `Nc1nc(-c2ccc3c(c2F)CN(C2CCC(=O)NC2=O)C3=O)ccc1CN1CC(C2CCC(F)(F)CC2)C1` (centres unmarked) [Example 1, 3-(5-(6-Amino-5-((3-(4,4-difluorocyclohexyl)azetidin-1-yl)methyl)pyridin-2-yl)-4-fluoro-1-oxoisoindolin-2-yl) piperidine-2,6-dione], the Dmax was 80 to 84% at IKZF3 Aiolos (summary table, Human CD8+ T Cell Reprogramming Assay (Table D-1), read-out: IKZF3 Aiolos max % deg. observed (Table E)); 80 to 84% at IKZF3 Aiolos (CD8+ T cells, human PBMC, read-out: IKZF3 Aiolos Maximum Observed Degradation); at least 80% on IKZF3 Aiolos (human, text summary of Table D-1, read-out: decreased the level of IKZF3 (Aiolos)); at least 81% at IKZF2 Helios (Regulatory T cell, human, text summary of Table C-1, read-out: decreased the level of the IKZF2 (Helios) protein); 81 to 86% at IKZF2 Helios (Regulatory T cell, human Treg cells, stimulated, 12-13 days, read-out: IKZF2 Helios Maximum Observed Degradation); 81 to 86% at IKZF2 Helios (summary table, Human T Regulatory Cell Reprogramming Assay (Table C-1), read-out: IKZF2 Helios max % deg. observed (Table E)). In addition, the DC50 on IKZF3 Aiolos (CD8+ T cells, human PBMC, concentration reducing protein level by 50% compared to DMSO alone) lay in the range of 33 to 36 nM; at IKZF2 Helios (human Treg cells, stimulated, 12-13 days, concentration reducing protein level by 50% compared to DMSO alone), 36 to 172 nM.
